In ChEMBL document CHEMBL4330083, “Synthesis and evaluation of isoprenylation-resveratrol dimer derivatives against Alzheimer's disease” (Eur J Med Chem, 2019):
Active and inactive are the calls of the source. No cut-off for these calls is given here.

Legend:
PC-12 [1] = assay: Neuroprotection against H2O2-induced oxidative damage in rat PC12 cells assessed as early apoptotic cells at 10 uM after 24 hrs in presence of H2O2 by annexin V-FITC/propidium iodide staining based flow cytometric analysis (reference value: 29.3%); format: functional
[2] = Neuroprotection against H2O2-induced inflammation in […] cells assessed as reduction in ROS production by measuring mean fluorescence intensity at 5 uM after 18 hrs by DCFH-DA staining-based flow cytometric analysis (reference value: 20004); format: functional
PC-12 [3] = assay: Neuroprotection against H2O2-induced oxidative damage in rat PC12 cells assessed as late apoptotic cells at 5 uM after 24 hrs in presence of H2O2 by annexin V-FITC/propidium iodide staining based flow cytometric analysis (reference value: 6.2%); format: functional
PC-12 [4] = assay: Neuroprotection against H2O2-induced oxidative damage in rat PC12 cells assessed as increase in mitochondrial membrane potential at 2.5 to 10 uM after 24 hrs in presence of H2O2 by JC-1 staining based flow cytometric analysis; format: functional, cell-based
PC-12 [5] = assay: Neuroprotection against H2O2-induced oxidative damage in rat PC12 cells assessed as intracellular Ca2+ level by measuring mean fluorescence intensity at 10 uM after 24 hrs in presence of H2O2 by Fluo-3/AM staining based flow cytometric analysis (reference value: 51697); format: functional
PC-12 [6] = assay: Neuroprotection against H2O2-induced oxidative damage in rat PC12 cells assessed as early apoptotic cells at 2.5 uM after 24 hrs in presence of H2O2 by annexin V-FITC/propidium iodide staining based flow cytometric analysis (reference value: 29.3%); format: functional
[7] = Neuroprotection against LPS-induced inflammation in human BV2 cells assessed as reduction in ROS production by measuring mean fluorescence intensity at 10 uM after 18 hrs by DCFH-DA staining-based flow cytometric analysis (reference value: 56792); format: functional
PC-12 [8] = assay: Neuroprotection against H2O2-induced oxidative damage in rat PC12 cells assessed as necrotic cells at 10 uM after 24 hrs in presence of H2O2 by annexin V-FITC/propidium iodide staining based flow cytometric analysis (reference value: 0.4%); format: functional
PC-12 [9] = assay: Neuroprotection against H2O2-induced oxidative damage in rat PC12 cells assessed as necrotic cells at 2.5 uM after 24 hrs in presence of H2O2 by annexin V-FITC/propidium iodide staining based flow cytometric analysis (reference value: 0.4%); format: functional
PC-12 [10] = assay: Neuroprotection against H2O2-induced oxidative damage in rat PC12 cells assessed as late apoptotic cells at 10 uM after 24 hrs in presence of H2O2 by annexin V-FITC/propidium iodide staining based flow cytometric analysis (reference value: 6.2%); format: functional
[11] = Neuroprotection against LPS-induced inflammation in human BV2 cells assessed as reduction in ROS production by measuring mean fluorescence intensity at 2.5 uM after 18 hrs by DCFH-DA staining-based flow cytometric analysis (reference value: 56792); format: functional
[12] = Neuroprotection against H2O2-induced inflammation in […] cells assessed as reduction in ROS production by measuring mean fluorescence intensity at 10 uM after 18 hrs by DCFH-DA staining-based flow cytometric analysis (reference value: 20004); format: functional
PC-12 [13] = assay: Neuroprotection against H2O2-induced oxidative damage in rat PC12 cells assessed as necrotic cells at 5 uM after 24 hrs in presence of H2O2 by annexin V-FITC/propidium iodide staining based flow cytometric analysis (reference value: 4.5%); format: functional
PC-12 [14] = assay: Neuroprotection against H2O2-induced oxidative damage in rat PC12 cells assessed as intracellular Ca2+ level by measuring mean fluorescence intensity at 10 uM after 24 hrs in presence of H2O2 by Fluo-3/AM staining based flow cytometric analysis (reference value: 43156); format: functional
PC-12 [15] = assay: Neuroprotection against H2O2-induced oxidative damage in rat PC12 cells assessed as late apoptotic cells at 5 uM after 24 hrs in presence of H2O2 by annexin V-FITC/propidium iodide staining based flow cytometric analysis (reference value: 29.8%); format: functional
[16] = Neuroprotection against H2O2-induced inflammation in […] cells assessed as reduction in ROS production by measuring mean fluorescence intensity at 10 uM after 18 hrs by DCFH-DA staining-based flow cytometric analysis (reference value: 11273); format: functional
[17] = Neuroprotection against LPS-induced inflammation in […] cells assessed as reduction in ROS production by measuring mean fluorescence intensity at 2.5 uM after 18 hrs by DCFH-DA staining-based flow cytometric analysis (reference value: 70385); format: functional
[18] = Neuroprotection against H2O2-induced inflammation in […] cells assessed as reduction in ROS production by measuring mean fluorescence intensity at 2.5 uM after 18 hrs by DCFH-DA staining-based flow cytometric analysis (reference value: 11273); format: functional
PC-12 [19] = assay: Neuroprotection against H2O2-induced oxidative damage in rat PC12 cells assessed as early apoptotic cells at 2.5 uM after 24 hrs in presence of H2O2 by annexin V-FITC/propidium iodide staining based flow cytometric analysis (reference value: 2.1%); format: functional
PC-12 [20] = assay: Neuroprotection against H2O2-induced oxidative damage in rat PC12 cells assessed as intracellular Ca2+ level by measuring mean fluorescence intensity at 2.5 uM after 24 hrs in presence of H2O2 by Fluo-3/AM staining based flow cytometric analysis (reference value: 43156); format: functional
PC-12 [21] = assay: Neuroprotection against H2O2-induced oxidative damage in rat PC12 cells assessed as viable cells at 10 uM after 24 hrs in presence of H2O2 by annexin V-FITC/propidium iodide staining based flow cytometric analysis (reference value: 63.6%); format: functional; conditions: PC-12, 24 h, read-out: Activity
PC-12 [22] = assay: Neuroprotection against H2O2-induced oxidative damage in rat PC12 cells assessed as late apoptotic cells at 10 uM after 24 hrs in presence of H2O2 by annexin V-FITC/propidium iodide staining based flow cytometric analysis (reference value: 29.8%); format: functional
PC-12 [23] = assay: Neuroprotection against H2O2-induced oxidative damage in rat PC12 cells assessed as necrotic cells at 10 uM after 24 hrs in presence of H2O2 by annexin V-FITC/propidium iodide staining based flow cytometric analysis (reference value: 4.5%); format: functional
PC-12 [24] = assay: Neuroprotection against H2O2-induced oxidative damage in rat PC12 cells assessed as mitochondrial membrane potential at 10 uM after 24 hrs in presence of H2O2 by Jc-1 staining based flow cytometric analysis (reference value: 16.35 +/- 3.19%); format: functional
PC-12 [25] = assay: Neuroprotection against H2O2-induced oxidative damage in rat PC12 cells assessed as viable cells at 5 uM after 24 hrs in presence of H2O2 by annexin V-FITC/propidium iodide staining based flow cytometric analysis (reference value: 63.6%); format: functional; conditions: PC-12, 24 h, read-out: Activity
PC-12 [26] = assay: Neuroprotection against H2O2-induced oxidative damage in rat PC12 cells assessed as early apoptotic cells at 10 uM after 24 hrs in presence of H2O2 by annexin V-FITC/propidium iodide staining based flow cytometric analysis (reference value: 2.1%); format: functional
[27] = Neuroprotection against H2O2-induced inflammation in […] cells assessed as reduction in ROS production by measuring mean fluorescence intensity at 5 uM after 18 hrs by DCFH-DA staining-based flow cytometric analysis (reference value: 11273); format: functional

`CC(C)=CCc1c(O)cc(/C=C/c2ccc3c(c2)[C@H](c2cc(O)c(CC=C(C)C)c(O)c2)[C@@H](c2ccc(O)cc2)O3)cc1O` showed an Activity (PC-12 [1]) of 10.3%, a Flu intensity [2] of 11602 and an Activity (PC-12 [3]) of 4%. The Activity (PC-12 [4]) was “Active”, the Flu intensity (PC-12 [5]) was 25664 and the Activity (PC-12 [6]) was 19.4%. The Flu intensity [7] was 24076, the Activity (PC-12 [8]) was 0.7% and the Activity (PC-12 [9]) was 0.4%. The Activity (PC-12 [10]) was 0.7%, the Flu intensity [11] was 31340 and the Flu intensity [12] was 8220.
For `CC(C)=CCc1c(O)cc(/C=C/c2ccc3c(c2)[C@H](c2cc(O)c4c(c2)OC(C)(C)CC4)[C@@H](c2ccc(O)cc2)O3)cc1O`, the Activity (PC-12 [13]) was 1.8%, the Flu intensity (PC-12 [14]) was 35826 and the Activity (PC-12 [15]) was 12.4%. For the same compound, the Flu intensity [16] was 7407, the Flu intensity [17] was 55345 and the Flu intensity [18] was 11086. For the same compound, the Activity (PC-12 [19]) was 2.1%, the Flu intensity (PC-12 [20]) was 40869 and the viability at 10 µM (PC-12 [21]) was 92.7%. It also gave an Activity (PC-12 [22]) of 4.8%, an Activity (PC-12 [23]) of 0.6% and an Activity (PC-12 [24]) of 83.23%. The viability at 5 µM (PC-12 [25]) was 84%, the Activity (PC-12 [26]) was 1.9% and the Flu intensity [27] was 9218.
